Target: T1, human CGRP receptor (Homo sapiens, UniProt O60894+Q16602)
T1 construct: SK-N-MC membranes (˜20 μg protein) are incubated for 180 minutes at ambient temperature; endogenous in cells; host or cells: SK-N-MC cells (membranes)
Assay: Binding studies with SK-N-MC cells (125I-CGRP displacement from membranes)
Conditions: 50 pM 125I-iodotyrosyl-CGRP, 180 min, ambient temperature
Protocol: A. Binding Studies with SK-N-MC Cells (Expressing the Human CGRP Receptor)
SK-N-MC membranes (˜20 μg protein) are incubated for 180 minutes at ambient temperature with 50 pM ^125I-iodotyrosyl-Calcitonin-Gene-Related Peptide and increasing concentrations of the test substances in a total volume of 250 μl (assay buffer: 10 mM tris, 50 mM NaCl, 5 mM MgCl2, 1 mM EDTA, pH=7.4). The incubation is ended by rapid filtration through GF/B-glass fibre filters treated with polyethyleneimine (0.1%) using a cell harvester. The protein-bound radioactivity is measured using a gamma counter. Non-specific binding is defined as the bound radioactivity after the presence of 1 μM BIBN4096BS during incubation.
The concentration binding curves are analysed using computer-aided non-linear curve fitting.

T1 sequence (Q16602 23-461): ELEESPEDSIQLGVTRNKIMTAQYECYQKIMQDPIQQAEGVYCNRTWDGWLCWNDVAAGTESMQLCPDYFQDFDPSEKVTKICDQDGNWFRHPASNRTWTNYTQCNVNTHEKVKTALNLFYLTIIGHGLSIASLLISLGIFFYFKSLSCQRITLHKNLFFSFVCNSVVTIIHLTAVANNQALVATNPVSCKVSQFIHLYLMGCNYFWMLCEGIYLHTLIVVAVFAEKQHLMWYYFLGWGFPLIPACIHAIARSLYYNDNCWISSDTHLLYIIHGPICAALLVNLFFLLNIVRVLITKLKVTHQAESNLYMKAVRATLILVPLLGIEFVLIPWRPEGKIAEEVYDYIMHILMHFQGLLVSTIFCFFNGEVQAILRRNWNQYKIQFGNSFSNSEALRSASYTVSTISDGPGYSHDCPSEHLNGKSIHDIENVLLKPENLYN
T1 sequence (O60894 27-148): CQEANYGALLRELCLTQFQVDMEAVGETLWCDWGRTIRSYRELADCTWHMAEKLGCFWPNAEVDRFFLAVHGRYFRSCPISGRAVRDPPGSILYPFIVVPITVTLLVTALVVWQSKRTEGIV

SMILES | Ki
Cc1cc(Oc2cc(N3CCC4(CC3)OC(=O)Nc3ncccc34)nc(C(F)(F)F)n2)cc2oc(=O)[nH]c12 [(74)] | 29 nM
Cc1cc(Oc2cc(N3CCC4(CC3)OC(=O)Nc3ncccc34)ncc2C#N)cc2oc(=O)[nH]c12 [(75)] | 23 nM
Cc1nc(Oc2cc(C)c3[nH]c(=O)oc3c2)cc(N2CCC3(CC2)CC(=O)Nc2ncccc23)n1 [(76)] | 26 nM
Cc1nc(Oc2cc(C)c3[nH]c(=O)oc3c2)cc(N2CCC3(CC2)C(=O)Nc2ncccc23)n1 [(77)] | 21 nM
COc1ccc2c(c1)CCN(C1CCN(c3cc(Oc4cc(C(F)(F)F)c5nc(C)[nH]c5c4)ncn3)CC1)C(=O)N2 [(79)] | 11 nM
COc1ccc2c(c1)CCN(C1CCN(c3cc(Oc4cc(C)c5[nH]c(=O)oc5c4)cc[n+]3[O-])CC1)C(=O)N2 [(80)] | 11 nM
